Measured values: US6677310B1, “Ring-expanded nucleosides and nucleotides” (Nabi, priority 1999, dated 2004)

Tests used:
[1] = target: T1, guanine deaminase (guanase) from rabbit liver (Oryctolagus cuniculus, UniProt G1T386); test: Guanine deaminase assay (Example 17); format: biochemical; conditions: Lineweaver-Burk plots
T1 construct: from tissue; host or cells: rabbit liver
Procedure: Stock solutions of the substrate, enzyme, and inhibitors were prepared using a 50 mM Tris-HCl buffer (pH 7.4). The enzyme kinetics was followed by measuring the change in optical density (decrease in absorbance) per minute of the substrate guanine. By keeping the concentration of the inhibitor constant, and by varying the substrate concentration, a set of kinetic data was obtained. Additional sets of data were generated using different concentrations of the inhibitor. The substrate concentration in each assay ranged 6-20 μM; a total of six different concentrations were employed. The inhibitor concentration used in each assay was 30 or 40 μM. The amount of enzyme used in each assay was 0.0076 unit. The Ki for inhibition assays was computed from Lineweaver-Burk plots. The Lineweaver-Burk plot (1/V vs 1/[S]), as well as the linear regression analysis of kinetic data, were performed using the program Quattro Pro (version 6.01) for Windows.™.

[2] = target: T2, adenosine deaminase from calf intestinal mucosa (Bos taurus, UniProt P56658); test: Adenosine deaminase assay (Example 17); format: biochemical; conditions: Lineweaver-Burk plots; with and without preincubation
T2 construct: against adenosine deaminase from calf intestinal mucosa; from tissue; host or cells: calf intestinal mucosa
Procedure: Inhibition of adenosine deaminase (ADA) by Compound 17-1 and Compound 17-2 (see FIG. 13 for chemical structures; note that structure 1 FIG. 13 is the same as that in figure except that it is written in an anti-conformation in the former) was investigated in vitro against adenosine deaminase from calf intestinal mucosa in a 50 mM phosphate buffer (pH=7.4) at 25° C., by spectro-photometrically monitoring the rate of hydrolysis of substrate adenosine at 265 nm. Stock solutions of the substrate, enzyme, and inhibitors were prepared using a 50 mM phosphate buffer (pH 7.4). The enzyme kinetics was followed by measuring the change in optical density (decrease in absorbance) per minute of the substrate adenosine. By keeping the concentration of the inhibitor constant, and by varying the substrate concentration, a set of kinetic data was obtained. Additional sets of data were generated using different concentrations of the inhibitor. […]
(a) pre-incubation of the enzyme with the inhibitor; here the enzyme (ADA 10 μL) and inhibitor were preincubated for 10 min in a calculated amount of phosphate buffer (50 mM, pH 7.5 ) at 25° C. and the reaction was initiated by the addition of substrate, adenosine, and (b) without preincubation; here the reaction was started by addition of ADA (10 μL) to a mixture of adenosine and inhibitor in the phosphate buffer at 25° C. […]

[3] = target: T3, bacteriophage T7 RNA polymerase (Escherichia phage T7, UniProt P00573); test: Transcription catalyzed by T7 RNA polymerase; format: biochemical
T3 construct: purchased Promega P2075
Procedure: To show whether the “fat” nucleotide Compound 15-2 (FNTP) is incorporated into RNA during transcription, experiments were performed using bacteriophage T7 RNA polymerase (RNAP) and a synthetic 42-mer DNA template shown below that is annealed to a 17-nucleotide promoter specific for T7 RNAP. This promoter-template enables the synthesis of 25-mer RNA, and the purine analogue may be incorporated in positions +1, +11, +13, +15, +21, +22, and +23.
Transcription reaction conditions were optimized with the use of ^32P CTP for labeling RNA transcripts. Polyacrylimide gel electrophoresis of the transcription products obtained from the 42-mer template, using 1 mM each of four natural NTPs, reveled a 25-mer RNA as the major product, together with shorter and longer labeled transcripts (FIG. 9, lane 1). The additional bands observed are consistent with the known ability of T7 RNA polymerase to add non-coded residues at the 3′-end of transcripts. (Milligan, J. F., et al., Nuc. Acids Res., 15, 8783-8798, 1987) With the use of 1 mM nucleotide Compound 15-2 (FNTP), the yield of transcription was reduced (lane 2).
With the use of a synthetic 37-mer DNA template, annealed to a 17-nucleotide promoter for T7 RNAP as shown below, a 20 nucleotide-long transcript RNA was obtained when the reaction mixture contained all four NTPs in appropriate concentrations, along with many shorter “abortive” fragments. (Milligan, J. F., et al., Nuc. Acids Res., 15, 8783-8798, 1987). For the reaction with modified nucleotide, typically
the concentration of the appropriate natural nucleotide was reduced. […] (Milligan, J. F., et al., Methods in Enzymol., 180, 51-63, 1989.) In the present experiments, the synthesis of RNA was compared under standard conditions (using 4 NTPs in 0.2 mM concentration each) with the synthesis of RNA by using an additional “fat” nucleoside triphosphate Compound 15-2 (FNTP) in varying (0.05-10 mM) concentrations. The reaction mixtures were incubated at 37° C. for 2 hours, and the products were denatured in a buffer containing urea. The products were separated by 20% polyacrylamide-urea gel electrophoresis and visualized by autoradiography.
Transcription samples (total volume 10 μL contained: 40 mM Tris-HCl pH 8.1 with 6 mM MgCl2, 5 mM dithiothreitol (DTT), 1 mM spermidine, 0.01% Triton-X 100, 50 μg/mL bovine serum albumin, 250 nM synthetic DNA template with a promotor for T7 RNAP, 4 units of T7 RNA polymerase, and 0.2 mM ribonucleoside triphosphates. A single α^32P-labeled NTP was added for labeling (typicallly 1 μL of 10 mCi/mL ). Inhibition assays were monitored with varying concentrations (0.05-10 mM) of nucleotide Compound 15-2. Polyacrylamide gel (20%) electrophoresis was performed on slab gels (18 cm×16 cm, or 35 cm×44 cm) containing 8M urea. […]

[4] = system: HL-60(TB); conditions: HL-60(TB) (Leukemia), 48 h
Procedure: Briefly, cell suspensions that were diluted according to the particular cell type and the expected target cell density (5000-40,000 cells per well based on cell growth characteristics) were added by pipette (100 μl) into 96-well microtiter plates. Inoculates were allowed a preincubation period of 24h at 37° C. for stabilization. Dilutions at twice the intended test concentrations of the test compounds were added at time zero in 100 μl aliquots to the microtiter plate wells. The plates were incubated for 48 h in 5% CO2 atmosphere and 100% humidity. The cells were assayed by using the sulforhodamine B assay (Rubinstein, L. V. et al. J. Natl. Cancer Inst. 82:1113-118, 1990; Skehan, P. et al., J. Natl. Cancer Inst. 82:1107-1112, 1990). The plates were read by a plate reader. The following parameters were calculated from the optical densities:
GI50, concentration of drug that causes 50% growth inhibition; where (T−T0)/(C−T0)×100=50

[5] = system: SF-539; test: SRB anti-cancer assay, CNS Cancer; format: cell-based, human; conditions: SF-539 (CNS Cancer), 48 h

T3 sequence (P00573 whole entry): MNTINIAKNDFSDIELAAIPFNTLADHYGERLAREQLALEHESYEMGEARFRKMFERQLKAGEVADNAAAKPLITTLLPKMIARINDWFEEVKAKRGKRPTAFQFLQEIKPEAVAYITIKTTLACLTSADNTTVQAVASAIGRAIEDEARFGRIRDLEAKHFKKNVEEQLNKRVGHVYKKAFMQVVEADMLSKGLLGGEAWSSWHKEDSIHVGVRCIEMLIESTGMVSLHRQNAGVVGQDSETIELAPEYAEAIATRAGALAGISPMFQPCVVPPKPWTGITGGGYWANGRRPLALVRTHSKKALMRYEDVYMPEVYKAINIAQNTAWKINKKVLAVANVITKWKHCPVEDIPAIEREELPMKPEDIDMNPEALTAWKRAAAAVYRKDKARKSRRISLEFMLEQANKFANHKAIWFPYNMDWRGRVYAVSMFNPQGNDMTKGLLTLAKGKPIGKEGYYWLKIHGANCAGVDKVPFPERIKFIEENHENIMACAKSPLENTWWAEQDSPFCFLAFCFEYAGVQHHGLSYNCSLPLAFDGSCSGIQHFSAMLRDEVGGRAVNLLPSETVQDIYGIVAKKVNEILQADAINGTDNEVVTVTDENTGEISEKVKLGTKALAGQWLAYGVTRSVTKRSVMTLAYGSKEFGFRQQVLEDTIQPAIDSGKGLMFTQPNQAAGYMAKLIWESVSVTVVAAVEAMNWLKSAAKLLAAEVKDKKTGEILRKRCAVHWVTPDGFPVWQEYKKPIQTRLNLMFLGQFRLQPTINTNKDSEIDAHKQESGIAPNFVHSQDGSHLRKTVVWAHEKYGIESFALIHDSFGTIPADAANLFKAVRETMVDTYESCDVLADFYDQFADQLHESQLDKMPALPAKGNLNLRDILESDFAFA
T1 sequence (G1T386 1-454): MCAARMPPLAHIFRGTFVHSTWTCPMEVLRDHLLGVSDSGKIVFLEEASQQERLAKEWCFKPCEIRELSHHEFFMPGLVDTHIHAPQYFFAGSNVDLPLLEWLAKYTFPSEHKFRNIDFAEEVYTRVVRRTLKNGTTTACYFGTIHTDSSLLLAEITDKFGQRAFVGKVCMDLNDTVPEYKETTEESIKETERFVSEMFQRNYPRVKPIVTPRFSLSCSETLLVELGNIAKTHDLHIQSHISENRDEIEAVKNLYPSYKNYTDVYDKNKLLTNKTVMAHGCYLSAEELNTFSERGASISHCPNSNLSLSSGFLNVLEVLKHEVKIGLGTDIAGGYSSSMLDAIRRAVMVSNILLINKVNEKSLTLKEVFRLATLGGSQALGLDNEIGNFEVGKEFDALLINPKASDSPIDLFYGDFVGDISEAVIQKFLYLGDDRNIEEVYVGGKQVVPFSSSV
T2 sequence (P56658 whole entry): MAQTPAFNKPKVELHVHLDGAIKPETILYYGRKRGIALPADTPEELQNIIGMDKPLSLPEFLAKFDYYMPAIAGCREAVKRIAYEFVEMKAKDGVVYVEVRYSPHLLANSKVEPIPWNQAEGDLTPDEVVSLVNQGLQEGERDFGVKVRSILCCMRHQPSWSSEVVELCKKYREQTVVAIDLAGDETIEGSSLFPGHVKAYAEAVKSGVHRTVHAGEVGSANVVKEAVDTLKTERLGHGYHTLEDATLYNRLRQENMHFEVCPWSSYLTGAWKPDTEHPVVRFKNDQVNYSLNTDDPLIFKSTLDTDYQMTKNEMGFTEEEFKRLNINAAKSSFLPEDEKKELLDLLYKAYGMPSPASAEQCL

Q: Which “inhibition of guanine deaminase (guanase), mode” value [1] does the source give for `N=c1nc(N)c2ncn([C@@H]3O[C@H](CO)[C@@H](O)[C@H]3O)c2c(N)n1` [Compound 14-2, 4,8-Diamino-6H-6-imino-1-β-D-ribofuranosylimidazo[4,5-e][1,3]diazepine] here?
A: inactive

Q: And the “mode of inhibition of adenosine deaminase” value [2]?
A: competitive inhibitor

Q: What about the “incorporation into RNA during transcription (substrate for T7 polymerase)” value ([3]; 42-mer DNA template) of the same molecule?
A: neither incorporation nor inhibition

Q: What about the “inhibition of T7 RNA polymerase-catalyzed transcription” value ([3]; 42-mer and 37-mer DNA templates, 0.05-10 mM) of the same molecule?
A: failed to cause inhibition of the transcription

Q: With `N=c1nc(N)c2ncn([C@@H]3O[C@H](COC(=O)c4ccccc4)[C@@H](OC(=O)c4ccccc4)[C@H]3OC(=O)c3ccccc3)c2c(N)n1` [4,8-Diamino-6H-6-imino-1(2′,3′,5′-tri-O-benzoyl-β-D-ribofuranosyl)imidazo[4,5-e][1,3]diazepine] as the molecule, how does the GI50 [4] read?
A: 4.01 µM

Q: And the TGI [4]?
A: 18.3 µM

Q: And the CC50 ([4]; read-out: LC50)?
A: 83.7 µM

Q: How did the GI50 [5] turn out when `N=c1[nH]c(=O)c2ncn([C@@H]3O[C@H](CO)[C@@H](O)[C@H]3O)c2c(=O)[nH]1` [Compound 14-1, 6-Imino-6H-1-β-D-ribofuranosyl-4,5,7,8-tetrahydroimidazo[4,5-e][1,3]diazepine-4,8-dione] was run?
A: > 100 µM

Q: What about the TGI [5] of the same molecule?
A: >100 µM

Q: And the CC50 ([5]; read-out: LC50 (the source's name))?
A: > 100 µM
